Common to all, as to assay: growth of human tumour cells (NCI), 48 h
The subject of assay [1] is A549 NSCLC.
The test system of assay [2] is COLO 205 colon.
Assay [3] has as its system HCC-2998 colon.
Assay [4] has as its system HL-60(TB) leukemia.
For assay [5], the system named is HOP-62 NSCLC.
For assay [6], the system named is HOP-92 NSCLC.
Assay [7] deals with HT29 colon.
Assay [8] relates to KM12 colon.
In assay [9] the test system is MCF7 breast.
In assay [10] the test system is NCI/ADR-RES ovarian.
Assay [11] has as its system OVCAR-3 ovarian.
In assay [12] the test system is RPMI-8226 leukemia.
Assay [13] deals with SF-295 CNS.
Assay [14] relates to SK-MEL-5 melanoma.
The subject of assay [15] is SNB-19 CNS.
Assay [16] concerns SR leukemia.
Assay [17] concerns U251 CNS.

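Grown in 96-well plates, cells were treated for 48 hours with each compound at five concentrations. Insufficient inhibition: endpoint recorded as highest concentration tested. At the GI50, growth is halved. TGI marks complete inhibition of growth.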

As to `COc1cc(Oc2nc3c(N)cc(C(F)(F)F)cc3nc2-c2ccccc2)cc(OC)c1OC`, the TGI is above 100 µM in assay [1]; above 80.7 µM in assay [2]; above 55.1 µM in [3]; above 100 µM in assay [4]; above 46.7 µM in assay [5]; above 65.4 µM in assay [6]. The TGI in [7] is 5.31 µM; in assay [8], above 100 µM; in assay [9], above 50.5 µM; in assay [10], above 26.1 µM; in assay [11] it was 13.5 µM; in [12], above 100 µM. Moreover, the TGI in [13] is above 29 µM; in assay [14] it was 48.6 µM; in assay [15], 27.6 µM; in assay [16], above 100 µM; in assay [17] it was above 45.7 µM.

As for `COc1cccc2c1C(=O)c1ccc3cc(CCl)cc(O)c3c1C2=O`, the TGI in assay [1] worked out at 1.36 µM; in assay [2], 0.467 µM; in assay [3], 1.46 µM; in assay [4] it was 0.551 µM; in [5], 1.08 µM; in assay [6] it was 1.73 µM. The TGI in [7] was 0.578 µM; in [8], 0.339 µM; in assay [9], 1.31 µM; in assay [10], 1.39 µM; in [11], 0.696 µM; in assay [12], 1.37 µM. Besides, the TGI in assay [13] was 2.23 µM; in assay [14], 1.19 µM; in assay [15] it was 1.86 µM; in [16], 1.13 µM; in assay [17], 1.67 µM.

For `Cc1ccc(S(=O)(=O)n2c3c(c4ccccc42)CCN2CCC(Br)C[C@@H]32)cc1` (stereo partly drawn), the TGI was determined as 31.4 µM in assay [1]; 30.2 µM in assay [2]; 28.4 µM in assay [3]; 17.4 µM in [4]; 28.5 µM in [5]; 32.4 µM in assay [6]. The TGI in [7] stood at 26.3 µM; in assay [8], 21.1 µM; in assay [9], 22.8 µM; in assay [10], 32.5 µM; in assay [11] it was 23.6 µM; in assay [12], 24.4 µM. Besides, the TGI in assay [13] came to 23.1 µM; in assay [14], 20.2 µM; in assay [15], 28.7 µM; in [16], 19.2 µM; in assay [17], 24.9 µM.

Consider `O=c1oc2c(ccc3ccccc32)cc1C1=CSC2=NCCN12`, for which the TGI is above 100 µM in [1]; above 100 µM in assay [2]; 38.7 µM in assay [3]; above 100 µM in assay [4]; above 100 µM in [5]; 84.3 µM in assay [6]. In addition, the TGI is above 100 µM in [7]; above 100 µM in [8]; 67.8 µM in assay [9]; above 100 µM in [10]; above 100 µM in assay [11]; above 100 µM in assay [12]. For the same compound, the TGI in [13], in [14], in assay [15], in assay [16] and in assay [17] was above 100 µM each time.

As to `O=C(NCCc1ccccc1)c1c(O)c2ccccc2[nH]c1=O`, the TGI in assay [1], in assay [2], in assay [3], in [4], in [5] and in [6] was above 100 µM each time. For the same compound, the TGI in [7], in assay [8], in assay [9], in assay [10], in assay [11] and in [12] was above 100 µM throughout. Further, the TGI in assay [13], in [14], in [15], in assay [16] and in [17] was above 100 µM in each case.

Take `O=C(/C=C/c1ccccc1)CSc1nc2ccc(I)cc2c(=O)n1Cc1ccccc1`: the TGI in assay [1] is above 100 µM; in assay [2], above 67.8 µM; in [3], 66.9 µM; in assay [4], 57.2 µM; in assay [5] it was 59.1 µM; in assay [6], 55.2 µM. For the same compound, the TGI in assay [7] was above 100 µM; in assay [8], above 100 µM; in assay [9], above 100 µM; in [10], above 100 µM; in assay [11], above 90.6 µM; in [12], above 88 µM. In addition, the TGI in assay [13] was above 70.6 µM; in assay [14], 99.3 µM; in assay [15] it was above 100 µM; in assay [16] it was 33.3 µM; in assay [17] it was above 100 µM.

Regarding `CCOC(=O)/C=C(\C(=O)OCC)n1ccc(=O)n(CC(=O)OCC)c1=O`, the TGI worked out at 32.3 µM in assay [1]; 3.16 µM in assay [2]; 32.2 µM in assay [3]; 1.22 µM in assay [4]; 38.7 µM in assay [5]; 3.06 µM in assay [6]. Besides, the TGI was found to be 16.2 µM in assay [7]; 30.8 µM in assay [8]; 9.73 µM in assay [9]; 60.8 µM in assay [10]; 12.5 µM in [11]; 7.67 µM in assay [12]. Further, the TGI in assay [13] was found to be 34.6 µM; in assay [14] it was 25.8 µM; in assay [15], 36.7 µM; in [16], 5.27 µM; in assay [17], 19.5 µM. Also, the GI50 in assay [12] is 2.81 µM.

Regarding `COc1ccc(C2(O)c3ccccc3C(=O)N(C)C2(O)c2ccc(OC)cc2)cc1` (stereo not drawn), the TGI is above 100 µM in [1]; 60.1 µM in [2]; above 100 µM in [3]; above 100 µM in [4]; above 100 µM in assay [5]; above 100 µM in assay [6]. In addition, the TGI is above 100 µM in [7]; 89.4 µM in [8]; above 100 µM in assay [9]; above 100 µM in assay [10]; above 100 µM in assay [11]; above 100 µM in assay [12]. Also, the TGI in [13], in assay [14], in assay [15], in assay [16] and in [17] was above 100 µM throughout.

On to `CCOc1ccc(NCC2CC/C(=C\c3ccc(O)cc3)C2=O)cc1` (stereo not drawn), for which the TGI in assay [1] is 48.6 µM; in assay [2], 28.6 µM; in [3] it was 34 µM; in assay [4], 5.33 µM; in [5] it was above 67.1 µM; in assay [6], 30 µM. For the same compound, the TGI was 33 µM in [7]; 26.8 µM in assay [8]; 18.1 µM in [9]; 36.9 µM in assay [10]; 25.5 µM in assay [11]; above 25.3 µM in [12]. The TGI in assay [13] is above 54.6 µM; in [14] it was 33.8 µM; in [15], above 55.2 µM; in [16] it was 5.13 µM; in assay [17], 30.7 µM.

For the compound `Oc1ccc(/C=C/c2ccc3cccc(O)c3n2)cc1O`, the TGI in [1] is 27.8 µM; in assay [2], 29.6 µM; in [3], 26.9 µM; in assay [4], above 100 µM; in assay [5], 84.6 µM; in [6], above 100 µM. The TGI in assay [7] came out at 37.7 µM; in assay [8] it was 33 µM; in [9], 93.7 µM; in [10] it was 2.56 µM; in assay [11], 46 µM; in assay [12], 78 µM. Besides, the TGI in assay [13] worked out at 76.9 µM; in assay [14], 13.4 µM; in assay [15] it was 20.9 µM; in assay [16] it was 18.6 µM; in assay [17], 20.6 µM.

For the compound `O=C1C(=C(I)I)c2ccccc2-c2ccccc21`, the TGI in assay [1] is 34.7 µM; in [2], 3.66 µM; in assay [3], 7.54 µM; in assay [4], above 21.3 µM; in [5] it was 24.3 µM; in assay [6], 5.66 µM. Moreover, the TGI in assay [7] worked out at 12.2 µM; in [8], 24.6 µM; in [9], 13.8 µM; in assay [10] it was 12.2 µM; in [11], 3.82 µM; in [12] it was 3.95 µM. Further, the TGI came to 31.8 µM in [13]; 19.7 µM in [14]; 27.5 µM in [15]; 10.2 µM in assay [16]; 17.6 µM in [17].

(Values after PubChem BioAssay (NCI).)
